Test results taken from ChEMBL document CHEMBL5291721, “A preclinical secondary pharmacology resource illuminates target-adverse drug reaction associations of marketed drugs” (Nat Commun, 2023).

What was measured:
Estrogen receptor = molecular target: T1, Estrogen receptor (Homo sapiens, UniProt P03372)
T1 sequence (P03372 whole entry): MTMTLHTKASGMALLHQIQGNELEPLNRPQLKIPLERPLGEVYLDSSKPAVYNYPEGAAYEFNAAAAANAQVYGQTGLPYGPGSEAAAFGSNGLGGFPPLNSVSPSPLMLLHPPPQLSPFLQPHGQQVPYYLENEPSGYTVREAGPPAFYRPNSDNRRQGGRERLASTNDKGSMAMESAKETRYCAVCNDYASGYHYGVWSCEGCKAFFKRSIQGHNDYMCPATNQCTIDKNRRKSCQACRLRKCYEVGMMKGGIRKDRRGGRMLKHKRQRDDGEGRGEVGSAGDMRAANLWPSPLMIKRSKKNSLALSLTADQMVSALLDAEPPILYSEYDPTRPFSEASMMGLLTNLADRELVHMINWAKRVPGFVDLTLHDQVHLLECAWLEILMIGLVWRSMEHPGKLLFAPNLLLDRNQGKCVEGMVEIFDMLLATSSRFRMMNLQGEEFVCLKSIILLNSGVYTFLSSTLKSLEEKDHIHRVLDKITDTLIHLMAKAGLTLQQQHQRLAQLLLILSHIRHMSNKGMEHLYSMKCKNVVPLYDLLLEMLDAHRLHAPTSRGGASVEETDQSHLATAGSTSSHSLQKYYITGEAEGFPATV

[1] = molecular target: T2, Muscarinic acetylcholine receptor M1 (Homo sapiens, UniProt P11229); assay type: functional, cell-based
T2 sequence (P11229 whole entry): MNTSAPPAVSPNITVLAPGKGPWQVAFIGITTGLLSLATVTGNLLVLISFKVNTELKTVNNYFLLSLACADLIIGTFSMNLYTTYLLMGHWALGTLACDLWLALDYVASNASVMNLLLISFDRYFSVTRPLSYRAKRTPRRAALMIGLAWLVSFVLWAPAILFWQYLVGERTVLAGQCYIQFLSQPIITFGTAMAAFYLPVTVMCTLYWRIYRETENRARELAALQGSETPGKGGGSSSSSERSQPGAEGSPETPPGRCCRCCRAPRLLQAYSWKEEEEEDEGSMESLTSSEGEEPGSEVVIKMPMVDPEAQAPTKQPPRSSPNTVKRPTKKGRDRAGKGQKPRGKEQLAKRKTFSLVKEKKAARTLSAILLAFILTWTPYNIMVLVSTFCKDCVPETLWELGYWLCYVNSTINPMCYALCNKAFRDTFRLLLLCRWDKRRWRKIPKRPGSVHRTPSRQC

Histamine H2 receptor = Histamine H2 receptor (Homo sapiens, UniProt P25021); assay type: functional, cell-based
Sequence of Histamine H2 receptor (P25021 whole entry): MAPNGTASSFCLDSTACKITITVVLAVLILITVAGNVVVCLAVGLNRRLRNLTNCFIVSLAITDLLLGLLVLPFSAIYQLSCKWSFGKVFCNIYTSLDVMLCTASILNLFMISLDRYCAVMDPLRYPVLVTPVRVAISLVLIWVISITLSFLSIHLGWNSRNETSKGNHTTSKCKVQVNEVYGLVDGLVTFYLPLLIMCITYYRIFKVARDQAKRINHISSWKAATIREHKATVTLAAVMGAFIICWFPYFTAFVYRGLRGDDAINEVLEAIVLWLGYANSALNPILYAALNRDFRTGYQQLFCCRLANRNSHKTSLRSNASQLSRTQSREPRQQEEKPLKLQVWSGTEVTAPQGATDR

[2] = molecular target: Gamma-aminobutyric acid receptor subunit alpha-1 (Rattus norvegicus, UniProt P62813)
Sequence of Gamma-aminobutyric acid receptor subunit alpha-1 (P62813 whole entry): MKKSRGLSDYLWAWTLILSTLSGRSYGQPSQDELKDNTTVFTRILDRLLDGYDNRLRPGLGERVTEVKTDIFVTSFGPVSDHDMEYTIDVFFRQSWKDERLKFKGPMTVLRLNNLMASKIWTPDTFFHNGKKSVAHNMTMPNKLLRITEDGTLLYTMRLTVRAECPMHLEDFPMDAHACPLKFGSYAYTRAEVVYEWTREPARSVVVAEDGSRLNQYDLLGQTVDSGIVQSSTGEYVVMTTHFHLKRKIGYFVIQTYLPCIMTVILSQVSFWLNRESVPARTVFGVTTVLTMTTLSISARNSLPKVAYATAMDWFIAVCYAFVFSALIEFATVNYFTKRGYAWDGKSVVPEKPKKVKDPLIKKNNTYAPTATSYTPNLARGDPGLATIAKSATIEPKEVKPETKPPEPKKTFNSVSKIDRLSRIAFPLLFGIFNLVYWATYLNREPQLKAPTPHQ

D(1A) dopamine receptor = D(1A) dopamine receptor (Homo sapiens, UniProt P21728); assay type: functional, cell-based
Sequence of D(1A) dopamine receptor (P21728 whole entry): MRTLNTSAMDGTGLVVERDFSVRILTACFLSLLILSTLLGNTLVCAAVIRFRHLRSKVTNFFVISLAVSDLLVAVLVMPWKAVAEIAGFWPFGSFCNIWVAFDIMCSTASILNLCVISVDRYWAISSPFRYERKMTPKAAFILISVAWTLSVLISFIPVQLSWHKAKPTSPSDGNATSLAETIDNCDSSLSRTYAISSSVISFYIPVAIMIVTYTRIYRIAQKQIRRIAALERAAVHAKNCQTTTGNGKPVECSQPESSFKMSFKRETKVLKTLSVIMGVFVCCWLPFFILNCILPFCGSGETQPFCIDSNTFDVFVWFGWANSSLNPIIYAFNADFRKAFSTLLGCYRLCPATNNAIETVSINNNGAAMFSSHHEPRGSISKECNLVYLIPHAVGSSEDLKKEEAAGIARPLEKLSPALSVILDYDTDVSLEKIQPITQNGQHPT

[3] = molecular target: Delta-type opioid receptor (Homo sapiens, UniProt P41143)
Sequence of Delta-type opioid receptor (P41143 whole entry): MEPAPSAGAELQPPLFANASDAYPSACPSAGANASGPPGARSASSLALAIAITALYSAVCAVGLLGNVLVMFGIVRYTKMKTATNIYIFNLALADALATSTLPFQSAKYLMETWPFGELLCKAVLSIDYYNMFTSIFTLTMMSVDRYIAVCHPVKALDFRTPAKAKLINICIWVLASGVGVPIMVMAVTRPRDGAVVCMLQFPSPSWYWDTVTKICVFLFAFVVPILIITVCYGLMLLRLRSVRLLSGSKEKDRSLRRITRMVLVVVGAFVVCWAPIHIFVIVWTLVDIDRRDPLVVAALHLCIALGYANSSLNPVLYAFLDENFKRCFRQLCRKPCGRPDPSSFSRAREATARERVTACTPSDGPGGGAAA

[4] = molecular target: 3',5'-cyclic-AMP phosphodiesterase 4D (Homo sapiens, UniProt Q08499); assay type: functional
Sequence of 3',5'-cyclic-AMP phosphodiesterase 4D (Q08499 whole entry): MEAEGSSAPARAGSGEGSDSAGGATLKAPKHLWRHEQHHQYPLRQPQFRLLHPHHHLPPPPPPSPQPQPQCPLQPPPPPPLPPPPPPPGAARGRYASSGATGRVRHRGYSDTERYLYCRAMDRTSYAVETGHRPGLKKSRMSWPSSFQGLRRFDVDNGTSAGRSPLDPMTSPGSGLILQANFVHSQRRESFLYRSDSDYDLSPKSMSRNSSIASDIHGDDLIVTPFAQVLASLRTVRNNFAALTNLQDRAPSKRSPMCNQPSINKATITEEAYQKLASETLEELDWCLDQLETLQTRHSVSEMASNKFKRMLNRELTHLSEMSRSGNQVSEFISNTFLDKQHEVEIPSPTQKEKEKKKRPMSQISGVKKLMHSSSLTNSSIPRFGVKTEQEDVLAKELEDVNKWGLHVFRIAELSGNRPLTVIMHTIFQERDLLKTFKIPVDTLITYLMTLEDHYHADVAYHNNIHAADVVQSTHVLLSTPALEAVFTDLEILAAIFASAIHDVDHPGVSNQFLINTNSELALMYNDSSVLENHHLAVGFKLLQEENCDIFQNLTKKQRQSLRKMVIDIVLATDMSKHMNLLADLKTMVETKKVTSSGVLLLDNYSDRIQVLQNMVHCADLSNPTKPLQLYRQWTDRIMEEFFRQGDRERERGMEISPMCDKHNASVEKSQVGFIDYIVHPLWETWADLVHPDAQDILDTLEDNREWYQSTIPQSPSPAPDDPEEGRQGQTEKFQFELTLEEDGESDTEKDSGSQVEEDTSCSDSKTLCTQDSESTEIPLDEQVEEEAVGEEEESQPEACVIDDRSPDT

[5] = molecular target: Beta-2 adrenergic receptor (Homo sapiens, UniProt P07550)
Sequence of Beta-2 adrenergic receptor (P07550 whole entry): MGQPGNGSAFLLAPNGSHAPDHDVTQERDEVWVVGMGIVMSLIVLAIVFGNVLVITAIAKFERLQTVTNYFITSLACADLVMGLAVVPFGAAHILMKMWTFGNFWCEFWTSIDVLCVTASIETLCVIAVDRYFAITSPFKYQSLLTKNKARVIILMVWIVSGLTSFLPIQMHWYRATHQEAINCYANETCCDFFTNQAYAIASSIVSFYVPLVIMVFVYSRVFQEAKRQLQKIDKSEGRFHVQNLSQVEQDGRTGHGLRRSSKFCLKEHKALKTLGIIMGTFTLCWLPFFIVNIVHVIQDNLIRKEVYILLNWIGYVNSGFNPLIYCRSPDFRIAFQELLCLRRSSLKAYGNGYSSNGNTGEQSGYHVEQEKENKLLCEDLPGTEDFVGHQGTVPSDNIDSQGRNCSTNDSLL

Motilin receptor = Motilin receptor (Homo sapiens, UniProt O43193)
Sequence of Motilin receptor (O43193 whole entry): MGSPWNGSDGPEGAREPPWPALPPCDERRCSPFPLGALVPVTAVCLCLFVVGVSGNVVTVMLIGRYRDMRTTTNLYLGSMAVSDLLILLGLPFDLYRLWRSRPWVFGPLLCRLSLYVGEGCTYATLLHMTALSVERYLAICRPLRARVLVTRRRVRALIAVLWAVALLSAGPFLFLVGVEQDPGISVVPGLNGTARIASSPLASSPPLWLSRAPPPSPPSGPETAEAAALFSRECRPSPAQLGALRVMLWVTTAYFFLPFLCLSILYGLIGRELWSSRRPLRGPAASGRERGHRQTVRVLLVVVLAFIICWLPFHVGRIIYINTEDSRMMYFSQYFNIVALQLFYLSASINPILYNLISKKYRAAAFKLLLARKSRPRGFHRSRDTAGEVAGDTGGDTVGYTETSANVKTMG

B2 bradykinin receptor = molecular target: T3, B2 bradykinin receptor (Homo sapiens, UniProt P30411)
T3 sequence (P30411 whole entry): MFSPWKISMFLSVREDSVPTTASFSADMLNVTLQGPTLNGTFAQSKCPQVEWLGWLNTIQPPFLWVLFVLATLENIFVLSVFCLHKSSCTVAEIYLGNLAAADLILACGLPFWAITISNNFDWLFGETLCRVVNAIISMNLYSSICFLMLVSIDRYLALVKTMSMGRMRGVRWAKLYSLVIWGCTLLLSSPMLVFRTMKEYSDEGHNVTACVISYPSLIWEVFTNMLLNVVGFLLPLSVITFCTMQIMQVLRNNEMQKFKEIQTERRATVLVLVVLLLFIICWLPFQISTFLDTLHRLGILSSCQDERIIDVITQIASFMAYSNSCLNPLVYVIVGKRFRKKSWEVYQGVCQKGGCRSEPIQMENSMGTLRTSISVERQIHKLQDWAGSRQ

[6] = molecular target: Sodium-dependent noradrenaline transporter (Homo sapiens, UniProt P23975)
Sequence of Sodium-dependent noradrenaline transporter (P23975 whole entry): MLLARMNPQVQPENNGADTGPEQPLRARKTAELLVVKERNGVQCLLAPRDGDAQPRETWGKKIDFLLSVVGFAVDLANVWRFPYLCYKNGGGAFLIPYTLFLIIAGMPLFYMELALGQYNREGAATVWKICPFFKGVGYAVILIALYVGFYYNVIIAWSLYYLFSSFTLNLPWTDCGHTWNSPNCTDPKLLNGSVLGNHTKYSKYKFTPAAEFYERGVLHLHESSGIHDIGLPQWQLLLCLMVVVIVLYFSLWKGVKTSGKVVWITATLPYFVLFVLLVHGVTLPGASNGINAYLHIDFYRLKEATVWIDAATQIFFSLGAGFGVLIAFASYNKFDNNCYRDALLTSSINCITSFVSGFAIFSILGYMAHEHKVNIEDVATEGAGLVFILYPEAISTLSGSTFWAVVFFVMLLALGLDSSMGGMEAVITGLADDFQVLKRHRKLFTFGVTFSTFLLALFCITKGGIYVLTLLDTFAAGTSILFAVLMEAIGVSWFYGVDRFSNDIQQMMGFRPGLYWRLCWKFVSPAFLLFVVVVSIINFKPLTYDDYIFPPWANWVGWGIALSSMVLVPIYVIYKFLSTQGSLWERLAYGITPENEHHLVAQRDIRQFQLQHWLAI

[7] = molecular target: T4, Muscarinic acetylcholine receptor M2 (Homo sapiens, UniProt P08172); assay type: functional, cell-based
T4 sequence (P08172 whole entry): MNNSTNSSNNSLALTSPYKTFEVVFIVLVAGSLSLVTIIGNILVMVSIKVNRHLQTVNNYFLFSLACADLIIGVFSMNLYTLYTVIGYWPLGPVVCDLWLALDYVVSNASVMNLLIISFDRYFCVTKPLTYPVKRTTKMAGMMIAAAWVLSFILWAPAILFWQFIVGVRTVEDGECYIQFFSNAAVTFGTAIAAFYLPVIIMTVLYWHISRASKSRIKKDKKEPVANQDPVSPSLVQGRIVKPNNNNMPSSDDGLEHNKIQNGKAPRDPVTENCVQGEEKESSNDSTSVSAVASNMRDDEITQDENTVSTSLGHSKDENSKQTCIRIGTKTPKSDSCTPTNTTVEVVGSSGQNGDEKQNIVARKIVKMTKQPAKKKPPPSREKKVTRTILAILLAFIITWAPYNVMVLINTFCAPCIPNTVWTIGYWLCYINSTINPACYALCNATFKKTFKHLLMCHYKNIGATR

[8] = molecular target: T4, Muscarinic acetylcholine receptor M2; assay type: functional, cell-based; remark: listed apart in the source
[9] = molecular target: T5, Gastrin/cholecystokinin type B receptor (Homo sapiens, UniProt P32239)
T5 sequence (P32239 whole entry): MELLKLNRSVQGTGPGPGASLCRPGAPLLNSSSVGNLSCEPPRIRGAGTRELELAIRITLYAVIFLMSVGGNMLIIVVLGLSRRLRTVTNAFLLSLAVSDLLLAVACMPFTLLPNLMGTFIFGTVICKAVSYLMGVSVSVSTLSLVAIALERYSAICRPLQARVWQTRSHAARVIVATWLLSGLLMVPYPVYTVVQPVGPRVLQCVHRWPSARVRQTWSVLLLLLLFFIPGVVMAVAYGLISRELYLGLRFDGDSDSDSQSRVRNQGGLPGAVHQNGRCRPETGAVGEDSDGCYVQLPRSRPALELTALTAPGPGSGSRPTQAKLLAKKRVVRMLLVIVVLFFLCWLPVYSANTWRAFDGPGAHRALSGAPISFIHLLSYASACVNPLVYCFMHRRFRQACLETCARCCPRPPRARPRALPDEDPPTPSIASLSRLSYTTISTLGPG
Further: assay procedure not described here.

SMILES | AC50 (Estrogen receptor) [µM] | AC50 [1] [µM] | AC50 (Histamine H2 receptor) [µM] | AC50 [2] [µM] | AC50 (D(1A) dopamine receptor) [µM] | AC50 [3] [µM] | AC50 [4] [µM] | AC50 [5] [µM] | AC50 (Motilin receptor) [µM] | AC50 (B2 bradykinin receptor) [µM] | AC50 [6] [µM] | AC50 [7] [µM] | AC50 [8] [µM] | AC50 [9] [µM]
CC(CN1CC(=O)NC(=O)C1)N1CC(=O)NC(=O)C1 (stereo unspecified) [RAZOXANE] | > 30 | > 30 |  |  |  |  |  |  |  |  |  |  |  | 
CN(CC1(C)CCCO1)S(=O)(=O)c1ccc(Cl)c(S(N)(=O)=O)c1 (stereo unspecified) [MEFRUSIDE] |  |  | > 30 | > 30 | > 30 | > 30 | > 30 |  |  |  |  |  |  | 
CCOC(=O)C1=C[C@@H](OC(CC)CC)[C@H](NC(C)=O)[C@@H](N)C1 [OSELTAMIVIR] |  | > 30 |  |  |  |  |  |  |  |  |  |  |  | 
OC[C@@H](O)[C@@H](O)[C@H](O)[C@@H](O)CO [SORBITOL] | > 30 |  |  | > 30 |  |  |  |  |  |  |  |  |  | 
CC(C)Cc1ccc(C(C)C(=O)O)cc1 (stereo unspecified) [IBUPROFEN] | > 30 |  | > 10 |  | > 10 | > 30 | > 30 | > 10 | > 10 | > 30 | > 30 | > 10 | > 10 | > 30
CN1CCCCC1CCN1c2ccccc2Sc2ccc([S+](C)[O-])cc21 (stereo unspecified) [MESORIDAZINE] | > 10 | > 30 |  |  |  |  |  |  |  |  |  |  |  | 
[H]/N=C(\N/C(=N/[H])Nc1ccc(Cl)cc1)NC(C)C [PROGUANIL] | > 30 | > 30 |  |  |  |  |  |  |  |  |  |  |  | 
C[C@@H]1C[C@H]2[C@@H]3CCC4=CC(=O)C=C[C@]4(C)[C@@]3(Cl)[C@@H](O)C[C@]2(C)[C@@]1(OC(=O)c1ccco1)C(=O)CCl [MOMETASONE FUROATE] |  | > 30 |  |  |  |  |  |  |  |  |  |  |  | 
N[C@@H](CS)C(=O)O [CYSTEINE] |  | > 30 |  |  |  |  |  |  |  |  |  |  |  | 
Nc1ccc(S(=O)(=O)Nc2nccs2)cc1 [SULFATHIAZOLE] |  |  | > 10 |  | > 10 | > 30 | > 30 | > 10 | > 10 | > 30 | > 10 | > 10 | > 10 | > 30
COc1cc2nccc(Oc3ccc(NC(=O)C4(C(=O)Nc5ccc(F)cc5)CC4)cc3)c2cc1OC [CABOZANTINIB] | > 30 | > 30 |  |  | > 30 | > 30 | 10 |  | > 30 |  | > 30 | > 30 | > 30 | 
O=C1CCc2cc(OCCCCc3nnnn3C3CCCCC3)ccc2N1 [CILOSTAZOL] |  |  | > 30 |  | > 30 | > 30 | 23.4 | > 30 | > 30 | > 30 | > 30 | > 30 | > 30 | > 30
COc1ccc(CC2c3cc(OC)c(OC)cc3CC[N+]2(C)CCC(=O)OCCCCCOC(=O)CC[N+]2(C)CCc3cc(OC)c(OC)cc3C2Cc2ccc(OC)c(OC)c2)cc1OC (stereo unspecified) |  |  | > 30 |  | > 30 | > 30 | > 30 | > 30 | > 30 | > 30 | 11.3 | > 30 | > 30 | > 30
C=C[C@H]1C[N@@]2CC[C@H]1C[C@@H]2[C@@H](O)c1ccnc2ccc(OC)cc12 [QUINIDINE] |  |  | > 10 |  | > 10 | > 30 | > 30 | > 10 | > 10 | > 30 | > 30 | > 10 | > 10 | > 30
Cc1ccccc1C(=O)Nc1ccc(C(=O)N2CCCC(N(C)C)c3ccccc32)cc1 (stereo unspecified) [MOZAVAPTAN] | > 30 | > 30 |  |  |  |  |  |  |  |  |  |  |  | 
C[C@]1(Cn2ccnn2)[C@H](C(=O)O)N2C(=O)C[C@H]2S1(=O)=O [TAZOBACTAM] | > 30 |  |  |  |  |  |  |  |  |  |  |  |  | 
CN(C)[C@@H]1C(O)=C(C(N)=O)C(=O)[C@@]2(O)C(O)=C3C(=O)c4c(O)ccc(Cl)c4[C@@](C)(O)[C@H]3C[C@@H]12 [CHLORTETRACYCLINE] |  |  |  | > 30 |  |  |  |  |  |  |  |  |  | 
CC(C)OC(=O)CCC/C=C\C[C@@H]1[C@@H](/C=C/C(F)(F)COc2ccccc2)[C@H](O)C[C@@H]1O [TAFLUPROST] | > 30 | > 30 |  |  |  |  |  |  |  |  |  |  |  | 
CC(CCc1ccccc1)NCC(O)c1ccc(O)c(C(N)=O)c1 (stereo unspecified) [LABETALOL] | > 30 |  |  |  |  |  |  |  |  |  |  |  |  | 
Cc1onc(-c2ccccc2)c1C(=O)N[C@@H]1C(=O)N2[C@@H]1SC(C)(C)[C@@H]2C(=O)O [OXACILLIN] | > 30 | > 30 |  |  |  |  |  |  |  |  |  |  |  | 
O=C(O)COc1ccc(C(=O)c2cccs2)c(Cl)c1Cl | > 30 |  |  |  |  |  |  |  |  |  |  |  |  | 
CC(C)N(CCC(C(N)=O)(c1ccccc1)c1ccccn1)C(C)C (stereo unspecified) [DISOPYRAMIDE] |  |  | > 10 |  | > 10 | > 30 | > 10 | > 30 | > 30 | > 30 | > 30 | > 10 | > 10 | > 30
COc1c2ccoc2cc2oc(=O)ccc12 [BERGAPTEN] | > 30 | > 30 |  |  |  |  |  |  |  |  |  |  |  | 
CO[C@H]1/C=C/O[C@@]2(C)Oc3c(C)c(O)c4c(O)c(c(/C=N/N5CCN(C)CC5)c(O)c4c3C2=O)NC(=O)/C(C)=C\C=C\[C@H](C)[C@H](O)[C@@H](C)[C@@H](O)[C@@H](C)[C@H](OC(C)=O)[C@@H]1C [RIFAMPIN] |  |  | > 30 |  | > 30 | 17 | 13 | 29 | > 30 | 18.6 | 20 | > 10 | > 30 | > 30
CN(C)CCc1c[nH]c2ccc(Cn3cncn3)cc12 [RIZATRIPTAN] |  |  | > 30 |  | > 30 | > 30 | > 30 | > 10 | > 10 | > 30 | > 10 | > 30 | > 30 | > 30
